Results: patent US6525087B2, “Use of known agonists of the central cannabinoid receptor CB1” (Bayer Aktiengesellschaft, priority 1997, dated 2003)

Experiments:
cannabinoid receptor = settings: cited from earlier work
[1] = Subdural haematoma in the rat (SDH); assay type: in vivo; settings: 2 and 4 h after trauma
Method: Subdural Haematoma in the Rat (SDH)
Under anaesthesia, the animals' own blood is injected subdurally on one side. An infarct is formed under the haematoma. Substance administration is carried out according to different time schemes and via different administration routes (i.v., i.p.). The infarct size is determined as described in the model of permanent focal ischaemia in the rat (MCA-O).

rat cortex membranes = biological target: T1, rat cortex membranes (Rattus norvegicus, UniProt P20272); experiment: Binding studies on rat cortex membranes
T1 construct: Membrane protein is prepared from different tissues or from cells by standard methods; from tissue; host or cells: rat cortex membranes
Method: Binding Studies on Rat Cortex Membranes
Membrane protein is prepared from different tissues or from cells by standard methods. Buffer, labelled ligands, DMSO or test substance are pipetted together, then 100 μg of protein are added, and the mixture is well mixed and incubated in a water bath at 30° C. for 60 min. After expiry of the incubation time, the reaction is stopped by addition of ice-cold incubation buffer to each tube. After filtering off, washing is carried out with ¾ ml of incubation buffer. The filters are transferred to minivials and the radioactivity is determined in a liquid scintillation counter.

[2] = biological target: T2, rat cannabinoid receptor CB1 (Rattus norvegicus, UniProt P20272); experiment: CB1 luciferase reporter gene test; assay type: cell-based; settings: CHOCB1 reporter cell line, forskolin-stimulated
T2 construct: contains an open reading frame of 1419 base pairs which corresponds to a protein of 473 amino acids; expressed in transfected cells; host or cells: CHOluc9 reporter cells, stably transfected with plasmid CMV-RH (pRc/CMV)
Method: CB1 Luciferase Reporter Gene Test
This construct (plasmid CMV-RH) was employed for transfection experiments.
Stable Transfection of the CHOluc9 Reporter Cells
CHOluc9 cells were cultured in 50% Dulbecco's modified Eagle Medium/50% F-12 (DMEM/F12) which contained 10% foetal calf serum (FCS). Transfections were prepared in 6-well plates. 7.5 μg of Qiagen-purified CMV-RH plasmid DNA were added per 10^5 cells with the DOTAP transfections system, corresponding to the experimental protocol of the manufacturer (Boehringer Mannheim). Transfected cells were selected with 1 mg/ml G418 and individual clones were obtained by limiting dilution on 96-well plates. Cell lines which express the cannabinoid receptor were identified in the presence of forskolin for the inhibition of reporter gene expression after incubation with the cannabinoid receptor agonist, WIN-55,2121-2. Several stably transfected and subcloned cell lines were further characterized by means of RT-PCR, as described under 1.
Test Optimization and Pharmacological Characterization of the CHOCB1 Reporter Cell Line
The following test protocol was used for pharmacological characterization of the cells and for robot-assisted substance screening: the stock cultures were cultured in 50% Dulbecco's modified Eagle Medium/50% F-12 (DMEM/F12) with 10% FCS at 37° C. under 10% CO2 and in each case split 1:10 after 2 to 3 days. […]

glutamate release [3] = experiment: Inhibition of glutamate release (rat hippocampus sections, KCl stimulation); assay type: cell-based; settings: 75 mM KCl, ratio S2/S1
Method: Inhibition of Glutamate Release
After decapitation of a rat, the skull is opened, and the brain is lifted out and cut through along the median fissure. The hippocampus is exposed, separated from the remaining tissue, cut into 350 μm thick sections and incubated at 37° C. in straining vessels for 60 min. Followed by basal value and stimulation 1 with 75 mM KCl (S 1), the sections are incubated with test substance and then the stimulation with KCl and test substance (S2) is repeated. The glutamate concentration of the samples to be investigated is then measured by means of an enzymatic reaction (GLDH) and fluorometric measurement of NADH. By means of a calibration curve, the glutamate content of the sample is determined, and with knowledge of the protein content the glutamate content/mg of protein can be calculated. The ratio S2/S1 is compared; glutamate release inhibitors reduce this ratio in a concentration-dependent manner.

[4] = Permanent focal cerebral ischaemia in the rat (MCA-O); assay type: in vivo; settings: 2 and 4 h after occlusion, infarct size after 7 days
Method: Permanent Focal Cerebral Ischaemia in the Rat (MCA-O)
Under isoflurane anaesthesia, the median cerebral artery is exposed on one side and the latter and its side branches are irreversibly sealed by means of electrocoagulation. As a result of the intervention a cerebral infarct is formed. During the operation, the body temperature of the animal is kept at 37° C. After wound closure and wearing off of the anaesthesia, the animals are again released into their cage. The administration of substances is carried out according to different time schemes and via different administration routes (i.v., i.p.) after occlusion. The infarct size is determined after 7 days. To do this, the brain is removed, worked up histologically and the infarct volume is determined with the aid of a computer-assisted analysis system.

[5] = Hypothermia, agonism testing; assay type: in vivo; settings: rat, i.v.
Method: Five minutes after determination of the basal body temperature via an oesophageal temperature probe, the test substance is administered (i.v.). A control group receives only the solvent for the test substances, likewise i.v. The body temperature is measured 7.5, 15, 30 and 60 minutes after i.v. administration. The group size per dose is 5-7 animals (rats).

glutamate release [6] = settings: Brain Res. references; cited from earlier work
[7] = J. Neurotrauma 1993, 10, 109; cited from earlier work
[8] = Brain Res. references; cited from earlier work

T1 sequence (P20272 whole entry): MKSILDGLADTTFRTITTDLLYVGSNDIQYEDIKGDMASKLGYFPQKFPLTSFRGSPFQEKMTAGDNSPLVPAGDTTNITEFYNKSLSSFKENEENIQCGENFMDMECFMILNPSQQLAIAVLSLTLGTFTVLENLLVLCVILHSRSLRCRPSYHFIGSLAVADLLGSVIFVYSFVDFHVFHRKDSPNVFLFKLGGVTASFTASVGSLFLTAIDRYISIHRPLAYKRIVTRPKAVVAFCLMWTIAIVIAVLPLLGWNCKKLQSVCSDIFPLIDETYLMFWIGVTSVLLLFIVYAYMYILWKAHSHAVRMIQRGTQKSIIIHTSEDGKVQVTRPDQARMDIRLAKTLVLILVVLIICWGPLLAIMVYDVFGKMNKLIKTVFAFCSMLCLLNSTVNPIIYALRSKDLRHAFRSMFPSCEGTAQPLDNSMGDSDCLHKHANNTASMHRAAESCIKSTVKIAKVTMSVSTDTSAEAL
T2 sequence (P20272 whole entry): as above

CCCCCCC(C)(C)c1cc(O)c2c(c1)OC(C)(C)[C@H]1CC=C(CO)C[C@H]21 [HU-211]
activity on the cannabinoid receptor (cannabinoid receptor): inactive

CCCCCCC(C)(C)c1cc(O)c2c(c1)OC(C)(C)[C@@H]1CC=C(CO)C[C@@H]21 [Example 5]
% reduction in the infarct volume ([1]; 0.001 mg/kg i.v. bolus directly): 58%
Ki (rat cortex membranes): 1 nM
IC50 [2]: 0.48 nM
inhibition at 1 µM (glutamate release [3]): 20%
% reduction in the infarct volume ([4]; 0.01 mg/kg i.v. bolus directly): 48%
Hypothermia ED−1°C. (necessary dose to achieve a maximum temperature drop of 1° C.) [5]: 0.01 mg/kg i.v.

Cc1c(C(=O)c2cccc3ccccc23)c2cccc3c2n1[C@H](CN1CCOCC1)CO3 [Example 18]
inhibition at 1 µM (glutamate release [3]): 50%
% reduction in the infarct volume ([4]; 0.03 mg/kg i.v. bolus directly): 20%
Hypothermia ED−1°C. (necessary dose to achieve a maximum temperature drop of 1° C.) [5]: 0.2 mg/kg i.v.

O=C(O)c1cc(=O)c2ccccc2[nH]1 [kynurenic acid]
inhibition of glutamate release in vitro (glutamate release [6]): markedly inhibit glutamate release

CCCCCCC(C)(C)c1cc(O)c2c(c1)OC(C)(C)[C@@H]1CC=C(CO)C[C@@H]21 [HU210]
neuroprotection in a craniocerebral trauma model [7]: non-neuroprotective

CCCCCCC(C)(C)c1ccc([C@@H]2C[C@H](O)CC[C@H]2CCCO)c(O)c1 [Example 15]
Hypothermia ED−1°C. (necessary dose to achieve a maximum temperature drop of 1° C.) [5]: 0.03 mg/kg i.v.

CCCCCc1cc(O)c2c(c1)OC(C)(C)[C@@H]1CCC(C)=C[C@@H]21 [Example 1]
% reduction in the infarct volume ([1]; 0.3 mg/kg i.v. bolus directly): 50%
Inhibition of glutamate release, % Inhibition @ 1 μM (glutamate release [3]): no effect
% reduction in the infarct volume ([4]; 1.0 mg/kg i.v. bolus directly): 31%
Hypothermia ED−1°C. (necessary dose to achieve a maximum temperature drop of 1° C.) [5]: 0.8 mg/kg i.v.

Cn1c(=O)c2[nH]cnc2n(C)c1=O [theophylline]
neuroprotective action in vivo [8]: no neuroprotective action
inhibition of glutamate release in vitro (glutamate release [6]): markedly inhibit glutamate release
